What was measured:
[1] = test system: SKBR3, MX-1, and 293T-B7-H4; experiment: NK cell-mediated ADCC; assay type: cell-based, human; conditions: NK effector cells, 4 hours
Source text: Antibodies directed to cell surface antigens can elicit direct killing of antibody-coated cells, including induction of ADCC.
Human PBMCs were thawed into pre-warmed R10+ Media (RPMI 1640 (Gibco #11875-093) with 10% HI-FBS (Gibco #16140-071), 1× sodium pyruvate (Gibco #11360-070), and 1× GlutaMax (Gibco #35050-061)) and then an EasySep NK isolation kit (StemCell #17955) was used to purify NK cells. Target tumor cells were lifted off using TrypLE Express (Gibco #12604-021) and then plated into a U-bottom plate (Falcon #353077) at 40,000 cells/well (50 μL/well) for MX-1 and 293T-B7-H4 (HEK 293T cells engineered to express human B7-H4) and 20,000 cells/well (50 μL/well) for SKBR3 cell line. […] (NOTE: actual starting concentration was 6000 ng/mL to account for the inherent 3× dilution of the assay.) Then 200,000 cells/well (50 μL/well) of isolated NK cells were plated into the U-bottom plate (effector: tumor ratios were as follows: NK:SKBR3 cells 10:1; NK:MX1 cells 5:1, NK:293T-B7-H4 cells 5:1). Appropriate controls included: positive control mAb and ADC and negative non-binding control mAb and ADC, NK cells only control, target cells only control, target cells maximum lysis control, and media only control. […] A CytoTox 96 Non-Radioactive Cytotoxicity Assay kit (Promega #G1780) was used to develop the signal, which was read using 490 nm wavelength on a SpectraMax 190 instrument.

[2] = test system: MDA-MB-468 xenograft tumors; experiment: Gene ontology (GO) term analysis of treated MDA-MB-468 xenograft tumors; assay type: in vivo, NSG mice
Method: For RNAseq, RNA was extracted from tumors and library preparation for […] sequencing was performed using PolyA selection. RNA was sequenced using the Illumina HiSeq platform 2×150 bp configuration. RNA extraction, library preparation, and sequencing were performed by GENEWIZ. Adaptors were trimmed using cutadapt version 1.16, reads were aligned to a composite (GRCh38(h38)/GRCm38(mm10)) genome using STAR version 2.5.2. Transcripts and genes were quantitated via RSEM version 1.2.31. Quantitative and statistical differences were determined between groups of samples using DESeq2 version 1.28.1. GO term and gene set enrichment analysis was performed with clusterProfiler version 3.16.1, msigdbr version 7.1.1, AnnotationDbi version 1.50.3, org.Mm.eg.db version 3.11.4, and org.Hs.eg.db version 3.11.4. […] Only GO terms with a p-value and q-value of 0.05 or less were retained. Figures were replotted using GraphPad Prism. The raw fastq files as well as the mapped BAM files are stored on the Seagen linux storage location: /fc1/jobs/research/RNASeq/.

[3] = test system: HR+ BC PDX models; experiment: HR+ breast cancer patient-derived xenograft models; assay type: in vivo, mice; conditions: for % TGI: 3 mg/kg q7dx3, vs untreated
Method: Specifically, Stock mice were bilaterally implanted with fragments from one of the Champions TumorGraft® models representing human HR^+ BC or ovarian cancer. After the tumors reached 1000-1500 mm^3, they were harvested, and the tumor fragments were implanted subcutaneously (s.c.) in the left flank of the female study mice. Each animal was implanted with a specific passage lot and documented. Tumor growth was monitored twice a week using digital calipers, and the tumor volume (TV) was calculated using the formula (0.52×[length×width^2]). When the TV reached approximately 150-300 mm^3, animals were matched by tumor size and assigned into control (untreated) or treatment groups (n=3 animals/group). Each animal in the treatment groups was dosed with 3 mg/kg of ADC every seven days for three total doses (q7dx3). […]
(§1) Inhibition of tumor growth was determined by calculating the percent TGI on the day at which animals in the control group were terminated (100%×[1−(final MTV−initial MTV of a treated group)/(final MTV−initial MTV of the control group)]). Treatment started on Day 0.

[4] = test system: TNBC PDX models; experiment: TNBC patient-derived xenograft models; assay type: in vivo, mice; conditions: 3 mg/kg q7dx3; for % TGI: vs untreated
Method: Tumor size and body weight were measured twice weekly, and the study was terminated when tumors in the control group reached 1500 mm^3 or up to Day 28, whichever occurred first, or maximum up to Day 60.
Specifically, stock mice were bilaterally implanted with fragments from one of the Champions TumorGraft® models representing human triple negative breast cancer. After the tumors reached 1000-1500 mm^3, they were harvested, and the tumor fragments were implanted subcutaneously (s.c.) in the left flank of the female study mice. Each animal was implanted with a specific passage lot and documented. Tumor growth was monitored twice a week using digital calipers, and the tumor volume (TV) was calculated using the formula (0.52×[length×width^2]). When the TV reached approximately 150-300 mm^3, animals were matched by tumor size and assigned into control (untreated) or treatment groups (n=1-3 animals/group). Each animal in the treatment groups was dosed with 10 mg/kg hIVIG (Grifolds), followed by 3 mg/kg of ADC every seven days for three total doses (q7dx3). Tumor size and body weight were measured twice weekly, and the study was terminated when tumors in the control group reached 1500 mm^3 or up to Day 28, whichever occurred first, or maximum up to Day 60.
as §1

SGN-B7H4V: ADC of fully human IgG1 anti-B7-H4 mAb conjugated to monomethyl auristatin E (MMAE) via a protease-cleavable valine-citrulline linker (vedotin)
ADCC response [1]: comparable ADCC responses
human gene categories related to apoptosis/programmed cell death pathways ([2]; compared to B7H41001 mAb-DM1): elevated
mouse immune-related GO terms ([2]; compared to B7H41001 mAb-DM1): increased
human gene categories related to the immune response ([2]; compared to B7H41001 mAb-DM4): elevated
mouse immune-related gene categories ([2]; compared to B7H41001 mAb-DM4): elevated
PDX models with antitumor activity ([3]; HR+ BC, 3 mg/kg, 3 weekly doses): ⅙
% TGI ([3]; HR+ BC_1, Day 38): 7%
% TGI ([3]; HR+ BC_2, Day 34): 79%
% TGI ([3]; HR+ BC_3, Day 16): 28%
% TGI ([3]; HR+ BC_4, Day 59): 12%
% TGI ([3]; HR+ BC_5, Day 59): 11%
% TGI ([3]; HR+ BC_6, Day 62): 16%
PDX models with tumor regression or tumor growth delay (e.g. TGI>50%) ([4]; TNBC): 9/11
% TGI ([4]; TNBC_1, Day 13): 111%
% TGI ([4]; TNBC_2, Day 7): 86%
% TGI ([4]; TNBC_3, Day 20): 71%
% TGI ([4]; TNBC_4, Day 20): 55%
% TGI ([4]; TNBC_5, Day 9): 106%
% TGI ([4]; TNBC_6, Day 20): 62%
% TGI ([4]; TNBC_7, Day 20): 25%
% TGI ([4]; TNBC_8, Day 17): 67%
% TGI ([4]; TNBC_9, Day 22): 26%
% TGI ([4]; TNBC_10, Day 27): 100%
% TGI ([4]; TNBC_11, Day 52): 109%
